Assay results as given in ChEMBL document CHEMBL1157539, “Thousands of chemical starting points for antimalarial lead identification” (Nature, 2010).

tested on: Plasmodium falciparum; assay: GSK_TCMDC: Inhibition of Plasmodium falciparum 3D7 in whole erythrocytes, using parasite LDH activity as an index of growth.; type: functional, organism-based; conditions: Plasmodium falciparum, 3D7

Row | SMILES | XC50 [nM]
1 | CCN1CCCC1CN(Cc1ccc(-c2ccc(C(F)(F)F)cc2)cc1)C(=O)Cn1c(CCc2cccc(F)c2F)nc(=O)c2ccccc21 (stereo unspecified) | 1590
2 | CCN(CC)CCN(Cc1ccc(-c2ccc(C(F)(F)F)cc2)cc1)C(=O)Cn1c(SCc2ccc(F)cc2)nc(=O)c2sccc21 | 987
3 | Cc1[nH]c(C)c(-c2ccc(Oc3ccccc3)cc2)c(=O)c1Br | 46.8
4 | c1ccc(Nc2nc(-c3ccccn3)cs2)nc1 | 1150
5 | Cc1[nH]c(C)c(-c2ccc(Oc3ccc(F)cc3)cc2)c(=O)c1Cl | 50.5
6 | CS(=O)(=O)c1cccc(-c2cnc3[nH]cc(-c4cccc(CCN)c4)c3c2)c1 | 1560
7 | COc1ccc(S(=O)(=O)NC2CCN(CCNC(=O)Nc3cc(C)nc4ccccc34)C2)cc1 (stereo unspecified) | 1190
8 | CCN(CCCN1CCCCC1)c1cc(C)nc(Nc2ccc(C)c(F)c2)n1 | 273
9 | Cc1cc(Br)cnc1CCCCNC1=NC(=O)CN1C | 366
10 | CCOC(=O)c1ccc(NC(=O)N[C@@H](Cc2ccccc2)C(=O)NC2CCN(Cc3ccc(O)c(OC)c3)C2)cc1 (stereo partly specified) | 989
11 | CC(C)[C@H](NC(=O)c1ccc(O)c(-c2ccc(Cl)c(Cl)c2)c1)C(=O)NCCN1CCCCC1 | 339
12 | COC(=O)c1ccc(C[C@@H](C)NC[C@H](O)c2cccc(C(F)(F)F)c2)cc1 | 790
13 | CC(C)c1ccc(C=CC(=O)N2CCC(CCN3CCC(c4c[nH]c5ccccc45)CC3)CC2)cc1 | 1260
14 | O=C(/C=C/C=C/c1ccccc1)NCCCCCN1CCC(c2c[nH]c3ccccc23)CC1 | 1170
15 | CCOc1ccc(C(=O)N2CCOC(CCN3CCC(c4ccccc4)CC3)(c3ccc(Cl)c(Cl)c3)C2)cc1 (stereo unspecified) | 854
16 | CCN(C(=O)NC)C1c2cc(C#N)ccc2OC(C)(C)C1O (stereo unspecified) | 304
17 | Cc1cc(C2CCN(CCCCNC(=O)c3ccc(NC(=O)c4ccc(Cl)cc4)cc3)CC2)c(C)cc1OCc1cccnc1 | 603
18 | CCCCCCCCCN1CC[C@@H](CCCc2ccnc3ccc(O)cc23)[C@@H](CC)C1 | 290
19 | COc1ccc(NC(=O)c2ccc3cc4ccccc4cc3c2)cc1N1CCN(C)CC1 | 1030
20 | c1ccc(-c2nc(NC3CCCCC3)cc(C3CC3)n2)nc1 | 728
21 | Cc1cccc(CN2CCCN(Cc3ccc(C(=O)Nc4ccc(C)c(F)c4)cc3)CC2)c1 | 1060
22 | O=C(NCCCCCN1CCC(c2c[nH]c3ccccc23)CC1)Nc1cccc(Br)c1 | 1110
23 | Oc1c(C=Nn2cnnc2)sc2ccccc12 | 911
24 | O=C(c1ccco1)N1CCN(c2nc(-c3ccc(Cl)cc3)nc3ccccc23)CC1 | 934

Row | SMILES | XC50 [nM]
25 | CNCCNCc1ccc(-c2ccc(-c3nc4cccc(C)c4[nH]3)s2)cc1 | 732
26 | O=C(/C=C/c1ccc(Cl)cc1)NCCCCCN1CCN(C(=O)C=Cc2ccc(Cl)c(Cl)c2)CC1 | 987
27 | CCCCCc1cc(O)c2c(c1)OC(C)(C)CC2C1=CCN(Cc2ccccc2)CC1 (stereo unspecified) | 767
28 | CNC(=O)c1ccc2[nH]cc(C3CCN(CC4CCC(NC(=O)/C=C/c5ccccc5Cl)CC4)CC3)c2c1 (stereo unspecified) | 836
29 | CN(C)CCOc1ccc(/C(=C(/CCCn2ccnc2)c2ccccc2)c2ccc(O)cc2)cc1 | 772
30 | Cn1cnnc1Sc1ccc(CN2CCOc3ccc(C4=CCCCC4)cc3C2)o1 | 849
31 | O=C(Nc1nccs1)c1cc(-c2cccnc2)nc2ccc(Br)cc12 | 403
32 | Cn1cc(C2CCN(CCCCNC(=O)c3ccc(-c4ccc(C(F)(F)F)cc4)c(CO)c3)CC2)c2ccccc21 | 1000
33 | CN1CCC(NCc2ccc(-c3cnc(NCc4ccccc4)nc3)cc2)CC1 | 827
34 | CCCCOC(=O)[C@H](CCC)NC(=O)c1ccc(NS(=O)(=O)c2ccc3nc(N)[nH]c(=O)c3c2)cc1 | 198
35 | Cc1cc(F)ccc1-c1nc(NCC(O)CNCCc2ccccc2)nc2c1ccc(=O)n2-c1c(F)cccc1F (stereo unspecified) | 539
36 | CC(=O)N(Cc1ccccc1-c1cccc(CNCCc2ccccc2)c1)C1CCN(Cc2ccccc2)CC1 | 1100
37 | COc1ccc2ncc(F)c(CCN3CCC(NCc4cc(C)c5c(c4)OCCO5)CC3)c2n1 | 493
38 | c1ccc(COc2ccc(C3CCCCC3)cc2)nc1 | 774
39 | N=C(N)c1ccc(NN=Cc2ccc(Oc3ccc(C(=N)N)cc3)cc2)cc1 | 90.2
40 | Cc1csc(NC(=O)c2cn(-c3ccccc3)nc2-c2cccs2)n1 | 911
41 | Cc1[nH]c(C)c(-c2ccc(OCc3cc(C(F)(F)F)cc(C(F)(F)F)c3)nc2)c(=O)c1Cl | 108
42 | COc1ccc(-c2nc(NCc3ccccc3)c3cc(OC)c(OC)cc3n2)cc1 | 398
43 | Cc1cc(C(=O)Nc2nc(-c3ccccn3)nc3ccsc23)no1 | 807
44 | CC(C)CN1CCN(CCNc2c3ccccc3nc3ccccc23)CC1 | 818
45 | COc1cc(C(=O)N2CCOC(CCN3CCC(Cc4ccc(F)cc4)CC3)(c3ccc(Cl)c(Cl)c3)C2)cc(OC)c1OC (stereo unspecified) | 902
46 | COc1ccc(NC(=O)N2CCCN(CCCCCNC(=O)/C=C/c3ccc(C(F)(F)F)cc3)CC2)cc1Cl | 980
47 | O=C(Nc1ccc(OC2CCN(Cc3ccccc3)C2)c(Cl)c1)c1cccs1 (stereo unspecified) | 388
48 | O=C(Nc1ccc(C(=O)Nc2cccc(C3=NCCN3)c2)cc1)Nc1ccc(C2=NCCN2)cc1 | 96

Row | SMILES | XC50 [nM]
49 | O=C(c1ccc([N+](=O)[O-])o1)N1CCN(c2nc3c(Cl)cccc3s2)CC1 | 980
50 | Cc1cccc2nc(-c3ccc(-c4cccc(NC(=O)NCc5cccc(F)c5)c4)s3)[nH]c12 | 760
51 | CS(=O)(=O)NCCCNCc1ccc(-c2ccc(-c3nc4cc(F)ccc4[nH]3)s2)cc1 | 811
52 | CN(c1ccc(C(=O)N[C@@H](CCC(=O)O)C(=O)O)cc1)S(=O)(=O)c1ccc2nc(N)[nH]c(=O)c2c1 | 149
53 | Cc1ccc(C2CC(c3cccs3)=NN2C(=O)c2ccc(Br)o2)cc1 (stereo unspecified) | 887
54 | CC(C)Cc1nc2nc(N)nc(N)c2cc1C(C)C | 226
55 | COc1ccc(CCNC(=O)c2cnc3c(c2)nc(-c2c[nH]c(-c4ccccc4)n2)n3CCc2c[nH]cn2)cc1 | 970
56 | Cc1cc(Oc2ccc(-n3ccnc3)cc2)nc(N2CCN(CCCN3CCCC3)CC2)n1 | 928
57 | CCc1cn(C)c2c(N3CCCC3=O)cc(C(=O)N[C@@H](Cc3ccccc3)[C@H](O)CNC(C)(C)CCCC(C)C)cc12 | 487
58 | CC(=O)Nc1ccc(C(=O)NC2CCN(c3ccnc4cc(Cl)ccc34)C2)cc1 (stereo unspecified) | 806
59 | Cc1cc(C)c(NC(=O)N[C@H]2CCN(CCCCCNC(=O)/C=C/c3ccc(Cl)c(Cl)c3)C2)c(C)c1 | 950
60 | CN(C)CCNC(=O)[C@H](CC1CCCCC1)NC(=O)c1ccc(O)c(-c2ccc(Cl)c(Cl)c2)c1 | 775
61 | Cc1cc(N2CCN(C)CC2)nc2ccc(NC(=O)c3cccc(N(C)C)c3)cc12 | 954
62 | Cc1ccccc1C1CCN(C2CCC(NC(=O)/C=C/c3ccc(C#N)cc3)CC2)CC1 (stereo unspecified) | 1170
63 | COc1cc(Cl)c(C)cc1-n1cc(C(=O)c2cc(Br)ccc2O)cc(C#N)c1=O | 874
64 | O=C(Cc1c[nH]cn1)Nc1cccc(-c2ccc(-c3nc4ccccc4[nH]3)cc2)c1 | 761
65 | OCC1CCN(Cc2ccc(-c3ccc(-c4nc5cc(F)ccc5[nH]4)cc3)cc2)CC1 | 845
66 | Cc1cc(NC(=O)[C@@H](Nc2ccc(C#N)c3ccccc23)C2CCCCC2)ccc1F | 892
67 | O=c1cc(NCCC(CNCc2cc3ccccc3o2)NCc2cc(Br)cc(Br)c2)[nH]c2ccccc12 (stereo unspecified) | 1210
68 | CCn1ccc2c(N3CCCCS3(=O)=O)cc(C(=O)N[C@@H](Cc3ccccc3)[C@H](O)CNC(C)(C)c3cccc(C(F)(F)F)c3)cc21 | 133
69 | COc1cccc(-c2cc(C(=O)Nc3ccc4[nH]c(-c5ccccc5)nc4c3)[nH]n2)c1 | 836
70 | COc1ccc(CC2(c3ccc(F)cc3)N=C(N)N(CCCc3ccc(F)c(F)c3)C2=O)cc1 (stereo unspecified) | 779
71 | c1ccc(CN2CCN(CCNc3c4ccccc4nc4ccccc34)CC2)cc1 | 876
72 | COc1ccccc1C1CCN(C2CCC(NC(=O)/C=C/c3cc(C(F)(F)F)ccc3F)CC2)CC1 (stereo unspecified) | 868

Row | SMILES | XC50 [nM]
73 | CS(=O)(=O)CCN(CCS(C)(=O)=O)Cc1ccc(-c2ccc3ncnc(Nc4ccc(OCc5cccc(F)c5)c(Cl)c4)c3c2)o1 | 1020
74 | CC1(C)CC(NCCCCCCCOc2ccc(OCc3ccccc3)cc2)CC(C)(C)N1 | 827
75 | COc1ccc(C=NNc2ccnc3cc(F)c(C)cc23)c2ccccc12 | 771
76 | Cc1ccc(Cl)c2sc(N3CCN(C(=O)c4ccc([N+](=O)[O-])o4)CC3)nc12 | 325
77 | O=C(/C=C/c1ccc(Cl)c(Cl)c1)NCCC1CCC(N2CCC(c3c[nH]c4ccccc34)CC2)CC1 (stereo unspecified) | 197
78 | O=C(/C=C/c1ccc(Cl)c(Cl)c1)NCCCCCN1CCC(CCNC(=O)/C=C/c2cc(C(F)(F)F)ccc2F)CC1 | 765
79 | CN1CCN(CCCN(Cc2cccc(-c3cccc(CNC4CCCC4)c3)c2)C(=O)CCC2CCCC2)CC1 | 675
80 | O=C1OC(c2ccccc2)(c2ccccn2)CN1C1CCN(Cc2cccn2-c2ccc(Cl)cc2)CC1 (stereo unspecified) | 475
81 | c1cc(-c2ccc(CN3CCCCC3)cc2)cc(-c2nc3ccccc3[nH]2)c1 | 585
82 | O=c1cc(NCCCNCc2ccccc2-c2ccccc2)[nH]c2ccccc12 | 975
83 | O=C(O)c1cccc2c(-c3ccncc3)cccc12 | 937
84 | Cc1nc(-c2ccc3c(c2)CCN(CCC2CCC(NC(=O)c4cc5cccc(Cl)c5[nH]4)CC2)CC3)no1 (stereo unspecified) | 633
85 | CC(C)C(=O)ONC1=NC(C)(C)N(OCCCOc2cc(Cl)c(Cl)cc2Cl)C(NOC(=O)C(C)C)=N1 | 26.6
86 | Cc1ccc(-c2nn3c(O)c4c(nc3c2C)CCCC4)cc1 | 217
87 | CCCC1(C)CSc2ccccc2C(c2ccccc2)N1 (stereo unspecified) | 707
88 | O=[N+]([O-])c1cccc(CNCC2CCN(CCc3ccccc3)CC2)c1 | 785
89 | CCCC(N)C(=O)NC1CCN(c2c(F)c(N)c3c(=O)c(C(=O)O)cn4c3c2Oc2ccccc2-4)C1 (stereo unspecified) | 359
90 | O=C(NC(Nc1ccc([N+](=O)[O-])cc1)C(Cl)(Cl)Cl)c1ccc(Cl)cc1 (stereo unspecified) | 782
91 | O=[N+]([O-])c1cccc(CNCC2CCN(Cc3ccc4ccccc4c3)CC2)c1 | 876
92 | COc1ccc2ncc(F)c(CCN3CCC(NCc4cc(OC)c5c(c4)OCCO5)CC3)c2n1 | 572
93 | CC(Cc1ccc(NS(=O)(=O)c2ccc(CC(C)NCCc3cccc(Cl)c3)cc2)cc1)NCCc1cccc(Cl)c1 (stereo unspecified) | 775
94 | O=C(NCC1CCC(C(=O)NCc2cccc3ccccc23)CC1)c1ccc(O)c(-c2ccc(Cl)c(Cl)c2)c1 (stereo unspecified) | 749
95 | CCc1c(CCNCCCCCCNC(C)Cc2ccc3c(c2CC)OCO3)ccc(OC)c1OC (stereo unspecified) | 870
96 | O=C(Nc1ccc(-c2ccccc2)cc1)Nc1cccc(OCCN2CCCC2)c1 | 935
